The values below come from article PMC8274516, “Identification of imidazo[4,5-c]pyridin-2-one derivatives as novel Src family kinase inhibitors against glioblastoma” (Journal of Enzyme Inhibition and Medicinal Chemistry, 2021).

Assay [1] has as its target T1, Src (Homo sapiens, UniProt P12931).
T1 construct: purchased Carna Biosciences 08-173
The experiment in a line: HTRF KinEASE-TK enzymatic assay, Src. In kind it is biochemical. To be noted: for Inhibition (1 μM, %) Src: compound at 1 μM, ATP at Km (16 µM), average of two independent experiments.

The target in assay [2] is T2, Fyn (Homo sapiens, UniProt P06241).
T2 construct: purchased Carna Biosciences 08-168
T2 sequence (P06241 whole entry): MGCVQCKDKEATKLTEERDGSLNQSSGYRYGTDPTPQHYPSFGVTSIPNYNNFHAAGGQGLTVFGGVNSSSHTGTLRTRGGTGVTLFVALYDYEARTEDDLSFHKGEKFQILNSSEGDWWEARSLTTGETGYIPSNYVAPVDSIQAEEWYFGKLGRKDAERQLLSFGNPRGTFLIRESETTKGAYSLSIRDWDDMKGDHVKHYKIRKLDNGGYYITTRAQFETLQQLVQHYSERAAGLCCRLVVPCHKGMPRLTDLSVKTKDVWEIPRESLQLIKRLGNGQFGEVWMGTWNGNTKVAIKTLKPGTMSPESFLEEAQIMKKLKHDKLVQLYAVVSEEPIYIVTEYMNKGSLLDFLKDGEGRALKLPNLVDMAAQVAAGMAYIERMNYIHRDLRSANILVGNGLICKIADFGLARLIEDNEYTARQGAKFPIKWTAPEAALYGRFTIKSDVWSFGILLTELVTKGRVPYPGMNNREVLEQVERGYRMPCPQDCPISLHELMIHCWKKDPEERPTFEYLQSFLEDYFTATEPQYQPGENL
Nature of the assay: HTRF KinEASE-TK enzymatic assay, Fyn. It is filed as biochemical. To be noted: for Inhibition (1 μM, %) Fyn: compound at 1 μM; for Inhibition (1 μM, %) Fyn / IC50: ATP at Km (51.76 µM), average of two independent experiments. (TR-FRET usually uses a lanthanide donor and a delayed reading to cut background.)

The subject of assay [3] is U251 GBM cell line. Nature of the assay: Cell proliferation inhibition assay (MTT), U251. In kind it is cell-based. To be noted: mean of at least three independent experiments, read-out: Antiproliferative activity IC50, U251. How it is done:
(§1) GBM cell lines U87, U251, and T98G (purchased from the American Type Culture Collection Company, Manassas, VA) were cultured in Roswell Park Memorial Institute (RPMI) 1640 medium containing 10% foetal bovine serum (FBS) at 37 °C in 5% CO2 incubator. The U87-EGFRvIII cell line established with EGFRvIII, kindly provided by Professor Xingmei Zhang, and grown in DMEN supplement with 10% FBS and […] G418 (Sigma-Aldrich, St. Louis, MO) at 37 °C in 5% CO2 incubator. The anti-proliferative activities of the compounds to be tested against four glioblastoma cell lines were determined by standard MTT method. In order to determine the anti-proliferation effect of the tested compounds, four cell lines were inoculated at a density of 2 × 10^3 cells/ml and treated with compounds at a concentration of 1–100 µM. The cells were co-incubated with different concentrations of the tested drugs for 72 h, and 10% MTT solution diluted in 100 µL medium was added. After 4 h of incubation, the absorbance value of each hole was measured at […] with an enzyme-linked immunosorbent assay plate reader. All compounds were tested three times in each cell line.

Assay [4] relates to U87 GBM cell line. The experiment in a line: Cell proliferation inhibition assay (MTT), U87. In kind it is cell-based. The note with it: 72 h, mean of at least three independent experiments, read-out: Antiproliferative activity IC50, U87. The procedure:
as §1

In assay [5] the test system is U87-EGFRvIII GBM cell line. The experiment in a line: Cell proliferation inhibition assay (MTT), U87-EGFRvIII. In kind it is cell-based. To be noted: 72 h, mean of at least three independent experiments, read-out: Antiproliferative activity IC50, U87-EGFRvIII.
Assay [6] relates to T98G GBM cell line. Nature of the assay: Cell proliferation inhibition assay (MTT), T98G. The note with it: 72 h, mean of at least three independent experiments, read-out: Antiproliferative activity IC50, T98G. In kind it is cell-based. The procedure:
as §1

Like-named read-outs stand apart in the source and are kept apart here.

One may read the inhibition as the drop in the measured response relative to a control, in per cent. For `COCCn1c(=O)n(-c2ccc(Cl)cc2)c2c(N)nccc21` [Compound 1i, 4-amino-3-(4-chlorophenyl)-1-(2-methoxyethyl)-1H-imidazo[4,5-c]pyridin-2(3H)-one], the inhibition at 1 µM was determined as 65% in assay [1] and 24% in assay [2].
The matching figures for `Nc1nccc2c1n(-c1ccc3[nH]ccc3c1)c(=O)n2C1CCCC1` [Compound 1r, 4-amino-1-cyclopentyl-3-(1H-indol-5-yl)-1,3-dihydro-2H-imidazo[4,5-c]pyridin-2-one]: 84% and 30%.
On the same counts, the results for `Cc1ccc(-n2c(=O)n(C3CCCC3)c3ccnc(N)c32)cc1` [Compound 1k, 4-amino-1-cyclopentyl-3-(p-tolyl)-1,3-dihydro-2H-imidazo[4,5-c]pyridin-2-one] are 88% and 65%.
On the same counts, the results for `CC(C)(C)n1c(=O)n(-c2ccc(Cl)cc2)c2c(N)nccc21` [Compound 1f, 4-amino-1-(tert-butyl)-3-(4-chlorophenyl)-1H-imidazo[4,5-c]pyridin-2(3H)-one] are 84% and 62%.
`Nc1nccc2c1n(-c1cccc(F)c1)c(=O)n2C1CCCC1` [Compound 1p, 4-amino-1-cyclopentyl-3-(3-fluorophenyl)-1,3-dihydro-2H-imidazo[4,5-c]pyridin-2-one]: the figures for the inhibition at 1 µM in assay [1] and in assay [2] were 66% and 19%, respectively.
With `Nc1nccc2c1n(-c1ccc(C(F)(F)F)cc1)c(=O)n2C1CCCC1` [Compound 1m, 4-amino-1-cyclopentyl-3-(4-(trifluoromethyl)phenyl)-1,3-dihydro-2H-imidazo[4,5-c]pyridin-2-one], the inhibition at 1 µM is 11% in assay [1] and -2% in assay [2].
In the case of “4-amino-3-(4-chlorophenyl)-1-(m-tolyl)-1H-imidazo[4,5-c]pyridin-2(3H)-one [Compound 1b]”, in assay [1], the “Inhibition (1 μM, %) Src” value is 54%. Besides, the “Inhibition (1 μM, %) Fyn” value in assay [2] came out at 11%.
Regarding `N#Cc1ccc(-n2c(=O)n(C3CCCC3)c3ccnc(N)c32)cc1` [Compound 1n, 4-(4-amino-1-cyclopentyl-2-oxo-1,2-dihydro-3H-imidazo[4,5-c]pyridin-3-yl)benzonitrile], the values for the inhibition at 1 µM in assay [1] and in assay [2] were 45% and 44%, respectively.
Broadly, the IC50 is the concentration at which inhibition is half-maximal. For `Nc1nccc2c1n(-c1ccc(Cl)cc1)c(=O)n2C1CCCC1` [Compound 1d, 4-amino-3-(4-chlorophenyl)-1-cyclopentyl-1,3-dihydro-2H-imidazo[4,5-c]pyridin-2-one], the IC50 in assay [1] was found to be 0.19 µM; in assay [3] (Homo sapiens, U-251, 72 h) it was 33.3 ± 3.36 µM; in assay [4] it was 63.3 ± 10.5 µM; in assay [2], 0.24 µM; in assay [5] it was 67.2 ± 3.2 µM; in assay [6] (Homo sapiens, T98G), 20.6 ± 0.3 µM. The inhibition at 1 µM amounted to 96% in assay [1] and 90% in assay [2].
In the case of `Nc1nccc2c1n(-c1ccc(Oc3ccccc3)cc1)c(=O)n2C1CCCC1` [Compound 1s, 4-amino-1-cyclopentyl-3-(4-phenoxyphenyl)-1,3-dihydro-2H-imidazo[4,5-c]pyridin-2-one], the half-maximal inhibitory concentration (IC50) in assay [1] was found to be 0.15 µM; in assay [3] (72 h), 24.6 ± 2.28 µM; in assay [3] (Homo sapiens, U-251, 72 h), 24.6 µM; in assay [4], 30.3 ± 0.84 µM; in assay [2] it was 0.21 µM; in assay [5] it was 50.5 µM. For the same compound, the half-inhibitory concentration (IC50) is 16.4 ± 2.12 µM in assay [6] and 16.4 µM in assay [6] (Homo sapiens, T98G). In addition, the inhibition at 1 µM in assay [1] is 93%; in assay [2], 90%.
On to `Nc1nccc2c1n(-c1ccc(Cl)cc1)c(=O)n2-c1ccccc1` [Compound 1a, 4-amino-3-(4-chlorophenyl)-1-phenyl-1H-imidazo[4,5-c]pyridin-2(3H)-one], for which the inhibition at 1 µM in assay [1] was 78%; in assay [2], 35%.
In the case of `Nc1nccc2c1n(-c1ccc(CO)cc1)c(=O)n2C1CCCC1` [Compound 1o, 4-amino-1-cyclopentyl-3-(4-(hydroxymethyl)phenyl)-1,3-dihydro-2H-imidazo[4,5-c]pyridin-2-one], the inhibition at 1 µM was found to be 19% in assay [1] and 20% in assay [2].
The matching figures for `COc1ccc(-n2c(=O)n(C3CCCC3)c3ccnc(N)c32)cc1` [Compound 1l, 4-amino-1-cyclopentyl-3-(4-methoxyphenyl)-1,3-dihydro-2H-imidazo[4,5-c]pyridin-2-one]: 91% and 28%.
On the same counts, the results for `CN(C)CCn1c(=O)n(-c2ccc(Cl)cc2)c2c(N)nccc21` [Compound 1h, 4-amino-3-(4-chlorophenyl)-1-(2-(dimethylamino)ethyl)-1H-imidazo[4,5-c]pyridin-2(3H)-one] are 18% and 19%.
On the same counts, the results for `CC(C)Cn1c(=O)n(-c2ccc(Cl)cc2)c2c(N)nccc21` [Compound 1g, 4-amino-3-(4-chlorophenyl)-1-isobutyl-1H-imidazo[4,5-c]pyridin-2(3H)-one] are 16% and 19%.
Regarding “4-amino-1-(3-bromophenyl)-3-(4-chlorophenyl)-1H-imidazo[4,5-c]pyridin-2(3H)-one [Compound 1c]”, in assay [1], the “Inhibition (1 μM, %) Src” value was 68%. Moreover, in assay [2], the “Inhibition (1 μM, %) Fyn” value was 31%.
Consider `CC(C)(C)n1nc(-c2ccc(Cl)cc2)c2c(N)ncnc21` [PP2, reference compound], for which the inhibition at 1 µM in assay [1] was 93%. For the same compound, the IC50 in assay [3] (Homo sapiens, U-251, 72 h) was 21.1 ± 2.16 µM; in assay [4], 39.9 ± 6.91 µM; in assay [6] (Homo sapiens, T98G) it was 12.5 ± 2.37 µM.
In the case of `Nc1nccc2c1n(-c1ccc(Cl)cc1)c(=O)n2C1CCCCC1` [Compound 1e, 4-amino-3-(4-chlorophenyl)-1-cyclohexyl-1H-imidazo[4,5-c]pyridin-2(3H)-one], the IC50 was 0.073 µM in assay [1]; 36.1 ± 2.53 µM in assay [3] (Homo sapiens, U-251, 72 h); 53.6 ± 2.51 µM in assay [4]; 0.58 µM in assay [2]; above 100 µM in assay [5]; 20.1 ± 0.67 µM in assay [6] (Homo sapiens, T98G). Besides, the inhibition at 1 µM in assay [1] was 88%; in assay [2], 76%.
Regarding `Nc1nccc2c1n(-c1ccc(Cl)cc1)c(=O)n2CCN1CCOCC1` [Compound 1j, 4-amino-3-(4-chlorophenyl)-1-(2-morpholinoethyl)-1H-imidazo[4,5-c]pyridin-2(3H)-one], the results for the inhibition at 1 µM in assay [1] and in assay [2] were 5% and 12%, respectively.
For `Nc1nccc2c1n(-c1ccc3c(c1)OCO3)c(=O)n2C1CCCC1` [Compound 1q, 4-amino-3-(benzo[d][1,3]dioxol-5-yl)-1-cyclopentyl-1H-imidazo[4,5-c]pyridin-2(3H)-one], the IC50 came out at 0.22 µM in assay [1]; 30 ± 0.93 µM in assay [3] (Homo sapiens, U-251, 72 h); 47 ± 3.78 µM in assay [4]; 0.73 µM in assay [2]; 69 ± 8.39 µM in assay [5]; 20.7 ± 0.67 µM in assay [6] (Homo sapiens, T98G). In addition, the inhibition at 1 µM in assay [1] came to 85%; in assay [2], 74%.
